Laboratory results from patent US20220362396A1, “AMINO-PYRAZINECARBOXAMIDE COMPOUNDS, CONJUGATES, AND USES THEREOF” (Silverback Therapeutics, Inc., priority 2018, published 2022).

Key:
[1] = system: TGFβ/SMAD Signaling Pathway SBE reporter cell line; test: TGFβ reporter assay, in vitro small molecule screening (luciferase); type: cell-based; conditions: TGFβ stimulation, luminescence
How it was run: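 SBE luciferase reporter cells (~0.5×10^6 cells/mL) preincubated with compound 5-6 h at 37 °C in 0.5% FBS MEM, then stimulated with TGFβ (12 ng/mL stock) for 18 h. Luminescence read after luciferase substrate; EC50 from curve fits.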

[2] = biological target: T1, TGFBR2 (Homo sapiens, UniProt P37173); test: TGFBR2 RBC assay (enzyme inhibition assay, Reaction Biology Corp.); type: biochemical
T1 construct: purchased Reaction Biology Corp
Procedure: Compounds of the disclosure were also assayed by Reaction Biology Corp. using the TGFBR2 RBC assay (enzyme inhibition assay). […] NT refers to not tested.

T1 sequence (P37173 23-567): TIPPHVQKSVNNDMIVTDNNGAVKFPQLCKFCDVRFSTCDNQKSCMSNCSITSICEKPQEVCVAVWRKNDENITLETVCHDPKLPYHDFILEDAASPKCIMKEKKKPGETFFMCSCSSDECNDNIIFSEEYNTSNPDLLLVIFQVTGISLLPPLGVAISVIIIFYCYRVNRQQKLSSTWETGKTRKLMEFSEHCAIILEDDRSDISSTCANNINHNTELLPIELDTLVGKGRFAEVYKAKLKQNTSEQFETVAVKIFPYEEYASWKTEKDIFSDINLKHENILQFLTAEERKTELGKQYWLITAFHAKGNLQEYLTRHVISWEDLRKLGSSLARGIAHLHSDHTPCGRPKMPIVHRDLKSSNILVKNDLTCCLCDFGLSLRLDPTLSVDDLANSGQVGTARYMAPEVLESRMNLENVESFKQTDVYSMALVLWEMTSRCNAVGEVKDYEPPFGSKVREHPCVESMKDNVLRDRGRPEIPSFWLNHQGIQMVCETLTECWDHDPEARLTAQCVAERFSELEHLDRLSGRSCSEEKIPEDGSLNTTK

SMILES | EC50 [1] | IC50 [2]
Nc1ncc(-c2ccc(CCNC(=O)OCc3ccccc3)cc2)nc1C(=O)Nc1cnccc1-n1cncn1 [Compound 188] | > 1 µM | < 0.05 µM
CC(COc1cccc(-c2cnc(N)c(C(=O)Nc3cnccc3N3CCOCC3)n2)c1)NC(=O)OC(C)(C)C (stereo not shown) [Compound 189] | > 1 µM | < 0.05 µM
CC(CN)Oc1cccc(-c2cnc(N)c(C(=O)Nc3cnccc3N3CCOCC3)n2)c1 (stereo not shown) [Compound 190] | 0.1 to 1 µM | 0.05 to 0.1 µM
CC(CNC(=O)OC(C)(C)C)Oc1cccc(-c2cnc(N)c(C(=O)Nc3cnccc3N3CCOCC3)n2)c1 (stereo not shown) [Compound 191] | > 1 µM | < 0.05 µM
COC(=O)[C@@H](Cc1ccc(-c2cnc(N)c(C(=O)Nc3cnccc3N3CCOCC3)n2)cc1)NC(=O)OC(C)(C)C [Compound 192] | 0.1 to 1 µM | < 0.05 µM
Nc1ncc(-c2ccc3c(c2)CCCN3)nc1C(=O)Nc1cnccc1N1CCOCC1 [Compound 193] | 0.05 to 0.1 µM | < 0.05 µM
CC(N)COc1cccc(-c2cnc(N)c(C(=O)Nc3cnccc3N3CCOCC3)n2)c1 (stereo not shown) [Compound 194] | 0.1 to 1 µM | < 0.05 µM
COC(=O)[C@H](N)Cc1ccc(-c2cnc(N)c(C(=O)Nc3cnccc3N3CCOCC3)n2)cc1 [Compound 195] | 0.1 to 1 µM | < 0.05 µM
CC(C)(C)OC(=O)N[C@H](Cc1ccc(-c2cnc(N)c(C(=O)Nc3cnccc3N3CCOCC3)n2)cc1)C(=O)O [Compound 196] | 0.1 to 1 µM | < 0.05 µM
Nc1ncc(-c2ccc(C[C@@H](N)C(=O)O)cc2)nc1C(=O)Nc1cnccc1N1CCOCC1 [Compound 197] | > 1 µM | 0.1 to 1 µM
Nc1ncc(-c2ccc3c(c2)CCC(=O)N3)nc1C(=O)Nc1cnccc1N1CCOCC1 [Compound 198] | 0.1 to 1 µM | 0.05 to 0.1 µM
CC(C)(C)OC(=O)N[C@@H](CO)Cc1ccc(-c2cnc(N)c(C(=O)Nc3cnccc3N3CCOCC3)n2)cc1 [Compound 199] | > 1 µM | < 0.05 µM
COC(=O)[C@H](Cc1ccc(-c2cnc(N)c(C(=O)Nc3cnccc3N3CCOCC3)n2)cc1)NC(=O)OC(C)(C)C [Compound 200] | > 1 µM | < 0.05 µM
Nc1ncc(-c2ccc3c(c2)CCNC3=O)nc1C(=O)Nc1cnccc1N1CCOCC1 [Compound 201] | 0.1 to 1 µM | 0.1 to 1 µM
Nc1ncc(-c2ccc(C[C@@H](N)CO)cc2)nc1C(=O)Nc1cnccc1N1CCOCC1 [Compound 202] | 0.1 to 1 µM | < 0.05 µM
COC(=O)[C@@H](N)Cc1ccc(-c2cnc(N)c(C(=O)Nc3cnccc3N3CCOCC3)n2)cc1 [Compound 203] | > 1 µM | < 0.05 µM
CC(COc1ccc(-c2cnc(N)c(C(=O)Nc3cnccc3N3CCOCC3)n2)cc1)NC(=O)OC(C)(C)C (stereo not shown) [Compound 204] | > 1 µM | < 0.05 µM
CC(N)COc1ccc(-c2cnc(N)c(C(=O)Nc3cnccc3N3CCOCC3)n2)cc1 (stereo not shown) [Compound 205] | 0.1 to 1 µM | < 0.05 µM
CC(CNC(=O)OC(C)(C)C)Oc1ccc(-c2cnc(N)c(C(=O)Nc3cnccc3N3CCOCC3)n2)cc1 (stereo not shown) [Compound 206] | 0.1 to 1 µM | < 0.05 µM
CC(C)(C)OC(=O)N[C@@H](Cc1ccc(-c2cnc(N)c(C(=O)Nc3cnccc3N3CCOCC3)n2)cc1)C(=O)O [Compound 207] | 0.1 to 1 µM | < 0.05 µM

SMILES | EC50 [1] | IC50 [2]
Nc1ncc(-c2ccc(C[C@H](N)C(=O)O)cc2)nc1C(=O)Nc1cnccc1N1CCOCC1 [Compound 208] | > 1 µM | < 0.05 µM
CC(C)(C)OC(=O)N[C@H](CO)Cc1ccc(-c2cnc(N)c(C(=O)Nc3cnccc3N3CCOCC3)n2)cc1 [Compound 209] | 0.1 to 1 µM | < 0.05 µM
Nc1ncc(-c2ccc(C[C@H](N)CO)cc2)nc1C(=O)Nc1cnccc1N1CCOCC1 [Compound 210] | 0.1 to 1 µM | < 0.05 µM
CC(C)(C)OC(=O)NC1Cc2ccc(-c3cnc(N)c(C(=O)Nc4cnccc4N4CCOCC4)n3)cc2C1 (stereo not shown) [Compound 212] | 0.1 to 1 µM | < 0.05 µM
Nc1ncc(-c2ccc3c(c2)CC(N)C3)nc1C(=O)Nc1cnccc1N1CCOCC1 (stereo not shown) [Compound 213] | 0.05 to 0.1 µM | < 0.05 µM
CC1(C)CCNc2ccc(-c3cnc(N)c(C(=O)Nc4cnccc4N4CCOCC4)n3)cc21 [Compound 214] | 0.1 to 1 µM | < 0.05 µM
CC(C)(C)OC(=O)NC1CCc2cc(-c3cnc(N)c(C(=O)Nc4cnccc4N4CCOCC4)n3)ccc21 (stereo not shown) [Compound 215] | 0.1 to 1 µM | < 0.05 µM
CC1CCNc2ccc(-c3cnc(N)c(C(=O)Nc4cnccc4N4CCOCC4)n3)cc21 (stereo not shown) [Compound 216] | 0.05 to 0.1 µM | < 0.05 µM
Nc1ncc(-c2ccc3c(c2)OCCN3)nc1C(=O)Nc1cnccc1N1CCOCC1 [Compound 217] | 0.1 to 1 µM | < 0.05 µM
CC(C)(C)OC(=O)N1CC(Oc2ccc(-c3cnc(N)c(C(=O)Nc4cnccc4N4CCOCC4)n3)cc2)C1 [Compound 218] | 0.05 to 0.1 µM | < 0.05 µM
Nc1ncc(-c2ccc(OC3CNC3)cc2)nc1C(=O)Nc1cnccc1N1CCOCC1 [Compound 219] | 0.05 to 0.1 µM | < 0.05 µM
Nc1ncc(-c2ccc3c(c2)CCC3N)nc1C(=O)Nc1cnccc1N1CCOCC1 (stereo not shown) [Compound 220] | 0.1 to 1 µM | < 0.05 µM
CC(C)(C)OC(=O)N[C@H]1C[C@H](Oc2ccc(-c3cnc(N)c(C(=O)Nc4cnccc4N4CCOCC4)n3)cc2)C1 [Compound 221] | < 0.05 µM | < 0.05 µM
Nc1ncc(-c2ccc(O[C@H]3C[C@H](N)C3)cc2)nc1C(=O)Nc1cnccc1N1CCOCC1 [Compound 222] | 0.1 to 1 µM | < 0.05 µM
CC(C)(C)OC(=O)N[C@H]1C[C@@H](Oc2ccc(-c3cnc(N)c(C(=O)Nc4cnccc4N4CCOCC4)n3)cc2)C1 [Compound 223] | 0.1 to 1 µM | < 0.05 µM
Nc1ncc(-c2ccc(O[C@H]3C[C@@H](N)C3)cc2)nc1C(=O)Nc1cnccc1N1CCOCC1 [Compound 224] | > 1 µM | < 0.05 µM
CC1c2ccc(-c3cnc(N)c(C(=O)Nc4cnccc4N4CCOCC4)n3)cc2CCN1C(=O)OC(C)(C)C (stereo not shown) [Compound 225] | 0.1 to 1 µM | 0.1 to 1 µM
CCOC(=O)[C@@H]1CN(Cc2ccccc2)C[C@H]1c1ccc(-c2cnc(N)c(C(=O)Nc3cnccc3N3CCOCC3)n2)cc1 [Compound 226] | 0.1 to 1 µM | < 0.05 µM
CCOC(=O)[C@@H]1CNC[C@H]1c1ccc(-c2cnc(N)c(C(=O)Nc3cnccc3N3CCOCC3)n2)cc1 [Compound 227] | 0.05 to 0.1 µM | < 0.05 µM
CC(C)(C)OC(=O)N1CCCc2cc(-c3cnc(N)c(C(=O)Nc4cnccc4N4CCOCC4)n3)ccc2C1 [Compound 228] | 0.1 to 1 µM | 0.05 to 0.1 µM

SMILES | EC50 [1] | IC50 [2]
Nc1ncc(-c2ccc3c(c2)CCCNC3)nc1C(=O)Nc1cnccc1N1CCOCC1 [Compound 229] | 0.1 to 1 µM | 0.05 to 0.1 µM
CC(C)(C)OC(=O)N1CCc2cc(-c3cnc(N)c(C(=O)Nc4cnccc4N4CCOCC4)n3)ccc2C1CN (stereo not shown) [Compound 230] | 0.05 to 0.1 µM | < 0.05 µM
Nc1ncc(-c2ccc3c(c2)CCNC3CN2C(=O)c3ccccc3C2=O)nc1C(=O)Nc1cnccc1N1CCOCC1 (stereo not shown) [Compound 232] | > 1 µM | < 0.05 µM
CC(C)(C)OC(=O)NCC1CCc2cc(-c3cnc(N)c(C(=O)Nc4cnccc4N4CCOCC4)n3)ccc2O1 (stereo not shown) [Compound 233] | 0.1 to 1 µM | < 0.05 µM
CC1NCCc2cc(-c3cnc(N)c(C(=O)Nc4cnccc4N4CCOCC4)n3)ccc21 (stereo not shown) [Compound 234] | 0.1 to 1 µM | < 0.05 µM
NCC1NCCc2cc(-c3cnc(N)c(C(=O)Nc4cnccc4N4CCOCC4)n3)ccc21 (stereo not shown) [Compound 235] | 0.1 to 1 µM | < 0.05 µM
Nc1ncc(-c2ccc(CCNC(=O)OCc3ccccc3)cc2)nc1C(=O)Nc1cnc(F)cc1N1CCOCC1 [Compound 236] | > 1 µM | < 0.05 µM
NCC1CCc2cc(-c3cnc(N)c(C(=O)Nc4cnccc4N4CCOCC4)n3)ccc2O1 (stereo not shown) [Compound 237] | 0.05 to 0.1 µM | < 0.05 µM
CC(C)(C)OC(=O)NC1CNc2ccc(-c3cnc(N)c(C(=O)Nc4cnccc4N4CCOCC4)n3)cc2C1 (stereo not shown) [Compound 238] | 0.1 to 1 µM | 0.05 to 0.1 µM
Nc1ncc(-c2ccc3c(c2)CC(N)CN3)nc1C(=O)Nc1cnccc1N1CCOCC1 (stereo not shown) [Compound 239] | 0.1 to 1 µM | 0.05 to 0.1 µM
COC(=O)c1cc(-c2cnc(N)c(C(=O)Nc3cnccc3N3CCOCC3)n2)ccc1OCCCN1C(=O)c2ccccc2C1=O [Compound 240] | > 1 µM | 0.05 to 0.1 µM
COC(=O)c1cc(-c2cnc(N)c(C(=O)Nc3cnccc3N3CCOCC3)n2)ccc1OCCCNC(=O)OC(C)(C)C [Compound 241] | > 1 µM | 0.1 to 1 µM
COC(=O)c1cc(-c2cnc(NC(=O)OC(C)(C)C)c(C(=O)Nc3cnccc3N3CCOCC3)n2)ccc1OCCCNC(=O)OC(C)(C)C [Compound 242] | > 1 µM | 0.05 to 0.1 µM
CC(C)(C)OC(=O)NCC1CCc2cc(-c3cnc(N)c(C(=O)Nc4cnccc4N4CCOCC4)n3)ccc2N1 (stereo not shown) [Compound 243] | 0.1 to 1 µM | 0.1 to 1 µM
NCC1CCc2cc(-c3cnc(N)c(C(=O)Nc4cnccc4N4CCOCC4)n3)ccc2N1 (stereo not shown) [Compound 244] | 0.1 to 1 µM | < 0.05 µM
Nc1ncc(-c2ccc3c(c2)CCCC3O)nc1C(=O)Nc1cnccc1N1CCOCC1 (stereo not shown) [Compound 245] | 0.1 to 1 µM | < 0.05 µM
Nc1ncc(-c2ccc3c(c2)CC(O)CC3)nc1C(=O)Nc1cnccc1N1CCOCC1 (stereo not shown) [Compound 246] | 0.1 to 1 µM | < 0.05 µM
Nc1ncc(-c2ccc3c(c2)CCC3O)nc1C(=O)Nc1cnccc1N1CCOCC1 (stereo not shown) [Compound 247] | 0.05 to 0.1 µM | < 0.05 µM
Nc1ncc(-c2ccc3c(c2)CC(O)C3)nc1C(=O)Nc1cnccc1N1CCOCC1 (stereo not shown) [Compound 248] | 0.1 to 1 µM | < 0.05 µM
